Source: publication PMC11758220, “Identification of a Privileged Scaffold for Inhibition of Sterol Transport Proteins through the Synthesis and Ring Distortion of Diverse, Pseudo-Natural Products” (ACS Central Science, 2025)

Key:
Format in all cases: binding
Aster-A = target: T1, Aster-A (Homo sapiens, UniProt Q96CP6); assay: Fluorescence polarisation (FP) competition with NBD-cholesterol, Aster-A; conditions: for Aster-A (FP) inhibition / inhibition at 10 µM: single dose, Dose = 10 µM; for IC50: mean of three experiments run in technical duplicates
T1 construct: Aster-A(359-547); GST (PreScission-cleavable) (N, cleaved yes); made in house; host or cells: E. coli OverExpress C41
T1 sequence (Q96CP6 359-547): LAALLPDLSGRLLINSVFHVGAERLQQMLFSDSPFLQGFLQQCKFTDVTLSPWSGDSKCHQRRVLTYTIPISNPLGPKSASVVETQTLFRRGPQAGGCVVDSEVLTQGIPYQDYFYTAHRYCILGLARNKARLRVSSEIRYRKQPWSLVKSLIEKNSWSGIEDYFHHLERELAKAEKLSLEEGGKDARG
Source text: (§1) Protein expression constructs
(§2) Human ASTER domains of Aster-A(359-547), -B(364-552) and -C(318-504) were subcloned into a pGEX-6p-2rbs vector, thus introducing the cloning artifact ‘GPLGS’.3 The pGEX-6P-1-GST-OSBP(377- […]
(§3) a gift from James H. Hurley (University of California).4 The pHIS_2His6_Thrombin_STARD4(2-205;C75S) plasmid was a gift from Young Jun Im (Chonnam National University).5 STARD5A was a gift from Nicola Burgess-Brown (Addgene plasmid #42392; http://n2t.net/addgene:42392; […]
(§4) Protein expression and purification […]
(§5) vectors including an N-terminal PreScission-cleavable glutathione S-transferase (GST)-tag were expressed in Escherichia coli (E. coli) OverExpress C41 in Terrific Broth (TB) medium for 16 h at 18 °C after the induction with 0.1 mM isopropyl β-D-1-thiogalactopyranoside (IPTG). Cells were harvested at 3500 × g for 15 minutes and lysed by sonication in buffer containing 50 mM HEPES pH 7.5, 300 mM NaCl, 10 %v/v glycerol, 5 mM dithiothreitol (DTT), 0.1 %v/v Triton X-100 and protease inhibitor mix HP plus (Serva). The lysate was purified by affinity chromatography on a GSTrap FF column (Cytiva) using an ÄKTA Start (Cytiva) in buffer containing 50 mM HEPES pH 7.5, 300 mM NaCl, 10 %v/v glycerol, 5 mM DTT and 0.01 %v/v Triton X-100. The GST-tag was cleaved overnight on the column at 4 °C. The Aster sterol binding domains were further purified by size-exclusion chromatography (SEC) on a HiLoad 16/600 Superdex 75 pg (Cytiva) in buffer containing 20 mM HEPES pH 7.5, 300 mM NaCl, 10 %v/v […]
(§6) STARD5(6-213) harboring an N-terminal His6-Tag were expressed in E. coli BL21(DE3) in Luria-Bertani Broth (LB) medium for approximately 16 h at 18 °C after induction with 0.15 mM IPTG. Cells were harvested at 3500 × g for 15 minutes and lysed by sonication in buffer containing 50 mM HEPES pH 7.5, 150 mM NaCl, 5 %v/v glycerol, 5 mM DTT, 0.1 %v/v Triton X -100 and ethylenediaminetetraacetic acid (EDTA)-free protease inhibitor cocktail (Sigma-Aldrich). The cleared lysate was purified by affinity chromatography on a Ni-NTA Superflow Cartridge (Qiagen) using an ÄKTA Start (Cytiva) in buffer containing 50 mM HEPES pH 7.5, 150 mM NaCl, 5 %v/v glycerol, 5 mM DTT. START domains were eluted by using elution buffer containing 50 mM HEPES pH 7.5, 150 mM NaCl, 5 %v/v glycerol, 5 mM DTT and 500 mM imidazole. Proteins were further purified by SEC on a HiLoad 16/600 Superdex 75 pg (Cytiva) in buffer containing 20 mM HEPES pH 7.5, 150 mM NaCl, 5 %v/v glycerol and 2 mM DTT.
(§7) The ORP domain of human OSBP(377-807) in the pGEX-6p-1 vector with an N-terminal PreScission-cleavable GST-tag was expressed in E. coli OverExpress C41 in LB medium for 16 h at 18 °C after induction with 0.1 mM IPTG. Cells were harvested at 3500 × g for 15 minutes and lysed by sonication in buffer containing 20 mM HEPES pH 7.5, 300 mM NaCl, 10 %v/v glycerol, 5 mM DTT, 0.1 %v/v Triton X-100 and EDTA-free protease inhibitor cocktail (Sigma-Aldrich). The cleared lysate was purified by affinity chromatography on a GSTrap HF column (Cytiva) using an ÄKTA Start (Cytiva) in buffer containing 20 mM HEPES pH 7.5, 300 mM NaCl, 10 %v/v glycerol, 5 mM DTT. OSBP(377 -807) was eluted by using elution buffer containing 20 mM HEPES pH 7.5, 300 mM NaCl, 10 %v/v glycerol, 5 mM DTT and 10 mM reduced glutathione. Proteins were further purified by SEC on a HiLoad 16/600 Superdex 75 pg (Cytiva) using an ÄKTA Explorer (Cytiva) in buffer containing 20 mM HEPES pH 7.5, 150 mM NaCl, 10 %v/v glycerol and 2 mM DTT.
(§8) The ORP domains of human ORP1(534-950) in pET24b(+) and ORP2(49-480) in the pET24b(+) vector including an N-terminal His6-Tag were expressed in E. coli BL21(DE3) in TB medium for approximately 16 h at 18 °C after induction with 0.1 mM IPTG. Cells were collected at 3500 × g for 15 minutes and lysed by sonification in buffer containing 10 mM Tris-HCl pH 8, 300 mM NaCl, 5 % glycerol, 2 mM DTT, 0.1 % Triton X-100 and EDTA-free protease inhibitor cocktail (Sigma-Aldrich). The cleared […]

Aster-B = target: T2, Aster-B (Homo sapiens, UniProt Q3KR37); assay: Fluorescence polarisation (FP) competition with NBD-cholesterol, Aster-B; conditions: for Aster-B (FP) inhibition / inhibition at 10 µM: single dose, Dose = 10 µM; for IC50: mean of three experiments run in technical duplicates
T2 construct: -B(364-552); GST (PreScission-cleavable) (N, cleaved yes); made in house; host or cells: E. coli OverExpress C41
T2 sequence (Q3KR37 364-552): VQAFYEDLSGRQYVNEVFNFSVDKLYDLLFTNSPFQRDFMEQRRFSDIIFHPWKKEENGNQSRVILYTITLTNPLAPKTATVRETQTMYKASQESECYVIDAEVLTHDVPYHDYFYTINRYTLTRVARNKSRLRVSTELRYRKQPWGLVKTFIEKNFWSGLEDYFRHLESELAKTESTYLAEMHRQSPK
Source text: as §1, §2, §3, §4, §5, §6, §7, §8

STARD5 = target: T3, STARD5 (Homo sapiens, UniProt Q9NSY2); assay: Differential scanning fluorimetry (DSF), STARD5; conditions: for STARD5 (DSF) ΔTm / ΔTm at 10 µM: single dose, Dose = 10 µM; for Kd: apparent Kd, mean of three experiments run in technical duplicates, read-out: STARD5 Kd,app (DSF); for STARD5 (DSF) ΔTmmax: maximal thermal shift
T3 construct: STARD5(6-213); host or cells: E. coli BL21(DE3)
T3 sequence (Q9NSY2 6-213): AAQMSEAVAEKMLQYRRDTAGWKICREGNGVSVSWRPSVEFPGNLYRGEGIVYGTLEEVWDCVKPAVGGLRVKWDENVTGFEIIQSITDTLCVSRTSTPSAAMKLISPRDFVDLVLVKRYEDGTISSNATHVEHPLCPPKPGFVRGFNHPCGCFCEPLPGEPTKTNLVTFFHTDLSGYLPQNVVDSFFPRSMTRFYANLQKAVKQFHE
Source text: as §1, §2, §3, §4, §5, §6, §7, §8

SMILES | Aster-A (FP) inhibition (Aster-A) [%] | Aster-B (FP) inhibition (Aster-B) [%] | STARD5 (DSF) ΔTm (STARD5) [°C] | IC50 (Aster-A) [µM] | IC50 (Aster-B) [µM] | Kd (STARD5) [µM] | inhibition at 10 µM (Aster-A) [%] | inhibition at 10 µM (Aster-B) [%] | ΔTm at 10 µM (STARD5) [°C] | STARD5 (DSF) ΔTmmax (STARD5) [°C]
Cc1nc2c(s1)CC[C@@H]1C[C@H](O)CC[C@]21C [Compound 8b] | -1 | 7.5 | 0.175 |  |  |  |  |  |  | 
CC(C)Oc1ccc(C(=O)Nc2nc3c(s2)CN(C(=O)OC(C)(C)C)CC3)cc1 [Autogramin-2, reference compound] | 70 | 5 | 0.211 | 1.09 | > 80 | > 30 |  |  |  | 
CCOC(=O)c1ccc2[nH]c3c(c2c1)CC[C@@H]1C[C@H](O)CC[C@]31C [Compound 10k] | 1 | -4 | 0.2 |  |  |  |  |  |  | 
C[C@]12CC[C@@H](O)C[C@H]1CCC(=O)c1cc(C(F)(F)F)ccc1NC2=O [Compound 11e] |  |  |  |  |  |  | -2 | 7 | 0.115 | 
CC(C)(C)OC(=O)N1CCN(c2ccc3c(c2)C24CCC5CC(CCC52C)OC4=N3)CC1 (centres unmarked) [Compound 19e] |  |  |  | 1.25 | > 80 | > 100 | 94 | 14 | 0.7 | 1.9
C[C@]12CC[C@@H](O)C[C@H]1CCc1c2[nH]c2ccc(Br)cc12 [Compound 10b] | -9 | -2.5 | 0.131 |  |  |  |  |  |  | 
CC12CCC3CC1CCC21C(=Nc2ccc(Br)cc21)O3 (single isomer, unassigned; (+)) [(+)-15b] |  |  |  | 35 | > 80 | > 100 | 2 | 3.33 | -0.0628 | 1.1
CC12CCC3CC1CCC21C(=Nc2ccc(N4CCNCC4)cc21)O3 (centres unmarked) [Compound 22] |  |  |  | 26.5 | > 80 |  | 10 | 11 | 0.211 | 
C[C@@]12CC[C@H]3C[C@@H]1CC[C@]21C(=Nc2ccc(Br)cc21)O3 [(−)-15b] |  |  |  | 4.14 | > 80 | > 100 | 80 | 14 | 0.4 | 1.3
C[C@]12CC[C@@H](O)C[C@H]1CCc1c2[nH]c2ncccc12 [Compound 3] |  |  |  |  |  |  | -2 | 8 | 0.149 | 
Cc1c2c(nc3cc(Br)ccc13)[C@@]1(C)CC[C@@H](O)C[C@H]1CC2 [Compound 2c] | -1 | 9 | 0.543 |  |  |  |  |  |  | 
CC12CCC(O)CC1CCc1c2[nH]c2ccc(C(F)(F)F)cc12 (centres unmarked) [Compound 10g] |  |  |  |  |  |  | -8 | -2.5 | 0.162 | 
C[C@]12CC[C@@H]3C[C@H]1CC[C@@]21C(=Nc2ccccc21)O3 [Compound 15a] |  |  |  | 7.17 | > 80 | > 100 | 43 | 13 | 1.3 | 
CC12CCC3CC1CCC21C(=Nc2ccc(NCc4ccccc4)cc21)O3 (centres unmarked) [Compound 19b] |  |  |  | 13.4 | > 80 | 19.3 | 4 | 9 | 2.2 | 5.3
COc1ccc2c(c1)[C@]1(O)CC[C@@H]3C[C@H](O)CC[C@]3(C)C1=N2 [Compound 14b] |  |  |  |  |  |  | 8 | 17 | 0.049 | 
C[C@]12CC[C@@H](O)C[C@H]1CCc1c2[nH]c2c(F)cc(Cl)cc12 [Compound 10i] |  |  |  |  |  |  | -8 | -4 | 0.421 | 
C[C@]12CC[C@@H](O)C[C@H]1CCc1sc(-c3cccnc3)nc12 [Compound 8c] | 0 | 7 | 0.15 |  |  |  |  |  |  | 
COc1ccc2[nH]c3c(c2c1)CC[C@@H]1C[C@H](O)CC[C@]31C [Compound 10f] |  |  |  |  |  |  | 0 | 13 | 0.159 | 
Cc1c2c(nc3ccccc13)[C@@]1(C)CC[C@@H](O)C[C@H]1CC2 [Compound 2a] |  |  |  |  |  |  | 1 | 14 | 0.4 | 
C[C@]12CC[C@@H]3C[C@H]1CC[C@@]21C(=Nc2ccc(N4CCN(Cc5ccncc5)CC4)cc21)O3 [Compound 24] |  |  |  | 5.33 | > 80 | > 100 | 54 | 12 | 0.216 | 0.44
C[C@]12CC[C@@H](O)C[C@H]1CCc1c2nc2ccccc2c1-c1ccccc1 [Compound 2b] | -2 | 2.5 | 0.0879 |  |  |  |  |  |  | 
COc1ccc(-c2nc3c(s2)CC[C@@H]2C[C@H](O)CC[C@]32C)cc1 [Compound 8d] |  |  |  |  |  |  | -1 | 6 | 0.146 | 
COc1ccc(-c2ccc3c(c2)C24CCC5CC(CCC52C)OC4=N3)cc1 (centres unmarked) [Compound 21b] |  |  |  | 3.37 | > 80 | > 100 | 72 | 21 | 1 | 0.15
